# Data published in PMC4698308, “A new amino acid substitution (Ala-205-Phe) in acetolactate synthase (ALS) confers broad spectrum resistance to ALS-inhibiting herbicides” (Planta, 2015).
# Tests used:
# [1] = target: T1, recombinant Arabidopsis thaliana ALS wild-type enzyme (WT—sensitive) (Arabidopsis thaliana, UniProt P17597); experiment: biochemical
# T1 construct: Protein constructs contained an 85 amino acid N-terminal deletion (chloroplast transit peptide); Hexa-histidine tag (N); made in house
# T1 sequence (P17597 86-670): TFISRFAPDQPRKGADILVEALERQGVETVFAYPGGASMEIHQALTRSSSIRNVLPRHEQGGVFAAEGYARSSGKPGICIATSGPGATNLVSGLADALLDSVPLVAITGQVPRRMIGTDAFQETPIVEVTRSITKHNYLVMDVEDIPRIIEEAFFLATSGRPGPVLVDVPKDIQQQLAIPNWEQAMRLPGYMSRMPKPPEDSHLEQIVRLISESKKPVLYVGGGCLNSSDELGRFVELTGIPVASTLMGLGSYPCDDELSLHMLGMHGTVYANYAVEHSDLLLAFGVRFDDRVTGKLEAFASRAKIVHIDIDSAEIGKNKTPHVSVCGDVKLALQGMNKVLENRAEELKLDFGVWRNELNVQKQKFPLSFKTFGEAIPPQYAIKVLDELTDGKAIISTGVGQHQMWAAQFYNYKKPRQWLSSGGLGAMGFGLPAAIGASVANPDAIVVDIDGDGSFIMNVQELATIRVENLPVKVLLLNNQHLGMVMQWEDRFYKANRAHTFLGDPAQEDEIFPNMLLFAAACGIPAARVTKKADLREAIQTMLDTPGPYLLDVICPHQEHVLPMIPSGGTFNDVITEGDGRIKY
# Summary of the method: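 His-tagged enzymes lacking the 85-residue N-terminal transit peptide, expressed and purified. Herbicides in DMSO added; reaction 60 min at 30 °C, stopped with H2SO4, acetolactate converted to acetoin at 56 °C for 15 min.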
# [2] = system: annual bluegrass (Poa annua L.); experiment: Whole plant confirmation of target-site resistance (visual control and dry biomass 28 days after treatment); format: in vivo
# Description: Progeny of all POAAN-R3 plants subjected to genetic sequencing (RP1–RP8) were surface seeded into separate 10.2 × 10.2 cm greenhouse pots (Dillen Products/Myers Industries, Inc. Middlefield, OH, USA.) filled with a peat moss growing medium (ProMix BX Mycorrhizae. Premier Tech Horticulture, Quakertown, PA, USA) on 5 January 2015. The susceptible annual bluegrass population (S) included in our sequencing analysis was also seeded in the same fashion.
# After seeding, pots were placed inside a growth chamber (Conviron A1000. Controlled Environments Inc, Hendersonville, NC) configured to provide 14 h day at 19 °C and a 10 h night at 10 °C. Light intensity inside the chamber averaged 296 μmol m^−2 s^−1. Irrigation was applied to each pot daily using distilled water and a misting nozzle. Annual bluegrass emergence was first noted on 16 January 2015. Plants remained inside the growth chamber until 26 January 2015. On this date, seedlings of each plant (RP1–RP8, S) were transplanted into individual 164 cm^3 plastic conical containers (SC10 Super Cell Cone-tainer. Stuewe and Sons. Tangent, OR 97389) filled with Sequatchie silt loam (fine-loamy, siliceous, semiactive, thermic humic Hapludult) measuring 6.2 in soil pH and 2.1 % in organic matter content. Transplants were replicated such that 32 plastic conical containers were created for each annual bluegrass plant analyzed in previous experiments (RP1–RP8, S). Immediately after transplanting, plastic conical containers were placed in a glasshouse located at the University of Tennessee (Knoxville, TN, USA; 35.56, 83.56). Peak light intensity in this glasshouse averaged 714 μmol m^−2 s^−1 with day/night temperatures averaging 27/17 °C. Irrigation was applied daily using an overhead misting system and plants were not clipped prior to initiating this study.
# Plants were allowed to acclimate to this glasshouse environment for 10 days prior to being treated with foramsulfuron (Revolver. Bayer Environmental Sciences. Research Triangle Park, NC, USA) at 29 g ha^−1, imazamox (Clearcast. BASF Corporation. Research Triangle Park, NC) at 140 g ha^−1, or simazine (Princep 4L. Syngenta Professional Products. Greensboro, NC) at 1120 g ha^−1. Per label recommendations, imazamox and simazine treatments included a non-ionic surfactant (Activator-90. Loveland Products Inc. Greeley, CO, USA) at 0.25 % v/v. All treatments were applied in an enclosed spray chamber (Generation III track sprayer. DeVries Manufacturing, Hollandale, MN, USA) using a water carrier at 215 L ha^−1 through an 8004 EVS nozzle (TeeJet, Technologies, Spraying Systems Co., Glendale Heights, IL, USA). These herbicide treatments were selected to confirm results of genetic sequencing that RP1–RP8 were resistant to sulfonylurea, imidazolinone, and photosystem II inhibiting herbicides. A non-treated control treatment was included with each resistant (RP1–RP8) and susceptible (S) plant for comparison. Herbicides were applied on 5 February 2015 when plants were at a two-to-three leaf stage, prior to annual bluegrass tiller formation.
# Annual bluegrass control was visually assessed on a 0 (i.e., no control) to 100 % (i.e., complete kill) scale relative to the non-treated 28 days after treatment. After all control data had been collected, aboveground biomass was harvested from each plastic conical container at the soil line using scissors, dried at 100 °C for 3 days, and weighed.
# Treatments were arranged as a 9 × 4 factorial with nine plant selections (i.e., RP1–RP8, S) and four herbicide treatments (i.e., foramsulfuron, imazamox, simazine, non-treated) in a completely randomized design with four replications and repeated in time and space during February 2015. Plants were the same age during both experimental runs.
smiles,measurement,setting,value
COc1cc(OC)nc(NC(=O)NS(=O)(=O)c2cc(NC=O)ccc2C(=O)N(C)C)n1 [Foramsulfuron],IC50,[1],7.5 nM
same,"annual bluegrass control, resistant plants with the exception of RP6","[2]; 28 days after treatment, summary over RP1–RP5, RP7, RP8",≤ 11%
same,Annual bluegrass biomass RP1,"[2]; RP1, aboveground dry biomass 28 days after treatment, foramsulfuron 29, imazamox 140, simazine 1120 g ha^-1",60 % of nontreated control
same,Annual bluegrass control RP1,"[2]; RP1 plants, 28 days after treatment, 2 to 3 leaf stage, foramsulfuron 29, imazamox 140, simazine 1120 g ha^−1",8%
same,Annual bluegrass biomass RP2,"[2]; RP2, aboveground dry biomass 28 days after treatment, foramsulfuron 29, imazamox 140, simazine 1120 g ha^-1",45 % of nontreated control
same,Annual bluegrass control RP2,"[2]; RP2 plants, 28 days after treatment, 2 to 3 leaf stage, foramsulfuron 29, imazamox 140, simazine 1120 g ha^−1",11%
same,Annual bluegrass biomass RP3,"[2]; RP3, aboveground dry biomass 28 days after treatment, foramsulfuron 29, imazamox 140, simazine 1120 g ha^-1",48 % of nontreated control
same,Annual bluegrass control RP3,"[2]; RP3 plants, 28 days after treatment, 2 to 3 leaf stage, foramsulfuron 29, imazamox 140, simazine 1120 g ha^−1",11%
same,Annual bluegrass biomass RP4,"[2]; RP4, aboveground dry biomass 28 days after treatment, foramsulfuron 29, imazamox 140, simazine 1120 g ha^-1",41 % of nontreated control
same,Annual bluegrass control RP4,"[2]; RP4 plants, 28 days after treatment, 2 to 3 leaf stage, foramsulfuron 29, imazamox 140, simazine 1120 g ha^−1",5%
same,Annual bluegrass biomass RP5,"[2]; RP5, aboveground dry biomass 28 days after treatment, foramsulfuron 29, imazamox 140, simazine 1120 g ha^-1",62 % of nontreated control
same,Annual bluegrass control RP5,"[2]; RP5 plants, 28 days after treatment, 2 to 3 leaf stage, foramsulfuron 29, imazamox 140, simazine 1120 g ha^−1",10%
same,Annual bluegrass biomass RP6,"[2]; RP6, aboveground dry biomass 28 days after treatment, foramsulfuron 29, imazamox 140, simazine 1120 g ha^-1",49 % of nontreated control
same,Annual bluegrass control RP6,"[2]; RP6 plants, 28 days after treatment, 2 to 3 leaf stage, foramsulfuron 29, imazamox 140, simazine 1120 g ha^−1",24%
same,Annual bluegrass biomass RP7,"[2]; RP7, aboveground dry biomass 28 days after treatment, foramsulfuron 29, imazamox 140, simazine 1120 g ha^-1",52 % of nontreated control
same,Annual bluegrass control RP7,"[2]; RP7 plants, 28 days after treatment, 2 to 3 leaf stage, foramsulfuron 29, imazamox 140, simazine 1120 g ha^−1",10%
same,Annual bluegrass biomass RP8,"[2]; RP8, aboveground dry biomass 28 days after treatment, foramsulfuron 29, imazamox 140, simazine 1120 g ha^-1",51 % of nontreated control
same,Annual bluegrass control RP8,"[2]; RP8 plants, 28 days after treatment, 2 to 3 leaf stage, foramsulfuron 29, imazamox 140, simazine 1120 g ha^−1",5%
same,Annual bluegrass control S,"[2]; susceptible (S) plants, 28 days after treatment, 2 to 3 leaf stage, foramsulfuron 29, imazamox 140, simazine 1120 g ha^−1",93%
same,Annual bluegrass biomass S,"[2]; susceptible (S), aboveground dry biomass 28 days after treatment, foramsulfuron 29, imazamox 140, simazine 1120 g ha^-1",0 % of nontreated control
